Test results reported in BindingDB's records for doi:10.1073/pnas.88.17.7491 (Duke University, 1991).

What follows are compounds tested against D(1A) dopamine receptor (Homo sapiens, UniProt P21728).
Sequence of D(1A) dopamine receptor (P21728 whole entry): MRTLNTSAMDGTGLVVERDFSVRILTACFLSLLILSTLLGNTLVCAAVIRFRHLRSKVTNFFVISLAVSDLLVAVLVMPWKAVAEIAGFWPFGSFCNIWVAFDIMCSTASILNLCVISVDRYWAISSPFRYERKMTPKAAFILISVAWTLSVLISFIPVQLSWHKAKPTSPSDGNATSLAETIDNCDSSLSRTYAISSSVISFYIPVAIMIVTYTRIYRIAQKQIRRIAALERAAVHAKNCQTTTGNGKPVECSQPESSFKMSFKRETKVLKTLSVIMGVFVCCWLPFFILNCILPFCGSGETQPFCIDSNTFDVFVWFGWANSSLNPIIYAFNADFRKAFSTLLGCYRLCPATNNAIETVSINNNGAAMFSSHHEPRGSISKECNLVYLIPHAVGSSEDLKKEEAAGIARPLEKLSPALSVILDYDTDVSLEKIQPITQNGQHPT

| Ki | SMILES |
| --- | --- |
| 75 nM | CN1CCN(C2=Nc3cc(F)ccc3Cc3ccccc32)CC1 |
| 0.65 nM | OCCC1CCN(CCC=C2c3ccc(F)cc3Sc3ccc(C(F)(F)F)cc32)CC1 [CAS_60197-32-2] |

| SMILES | Ki |
| --- | --- |
| O=C(O)c1ccccc1C(=O)Nc1cccc2ccccc12 [NPA,(+)] | 1540 nM |
